From article PMC4683934, “Effect of an ethanol extract of Descurainia sophia seeds on Phase I and II drug metabolizing enzymes and P-glycoprotein activity in vitro” (BMC Complementary and Alternative Medicine, 2015)

How the values were obtained:
UGT1A1 = target: T1, UGT1A1 (Homo sapiens, UniProt P22309); assay: Luminogenic UGT1A1 inhibition assay; format: biochemical; conditions: specific inhibitor positive control, means ± S.D., read-out: IC50 Inhibitors
T1 construct: purchased Promega V2120
T1 sequence (P22309 26-533): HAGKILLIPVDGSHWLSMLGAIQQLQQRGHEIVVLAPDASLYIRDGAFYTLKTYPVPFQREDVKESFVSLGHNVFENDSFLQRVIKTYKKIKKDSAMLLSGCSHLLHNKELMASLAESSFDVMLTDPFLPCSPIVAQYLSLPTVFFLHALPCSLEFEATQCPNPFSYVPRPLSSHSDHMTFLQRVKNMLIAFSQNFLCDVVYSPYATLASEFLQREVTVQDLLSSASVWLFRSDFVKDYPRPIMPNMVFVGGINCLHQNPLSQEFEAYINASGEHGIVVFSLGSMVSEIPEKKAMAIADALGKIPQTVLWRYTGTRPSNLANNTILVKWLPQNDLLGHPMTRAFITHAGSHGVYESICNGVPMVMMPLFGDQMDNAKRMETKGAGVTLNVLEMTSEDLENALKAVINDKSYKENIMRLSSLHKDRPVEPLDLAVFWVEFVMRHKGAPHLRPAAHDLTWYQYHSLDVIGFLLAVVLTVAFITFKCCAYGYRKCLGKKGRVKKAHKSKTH
Text: In vitro enzymatic inhibition assays of human Phase I (CYPs) and Phase II (UGTs) DME, and P-gp were done with commercially available luminogenic assay systems. The assay systems were purchased from Promega (Madison, WI, USA), and the microsomes containing the recombinant human CYPs were purchased from Life Technologies (Carlsbad, CA, USA). The microsomes containing human UGT and P-gp were supplied in the luminogenic assay systems (Promega). […]. […]. The enzyme reaction was done according to the manufacturer’s instructions. The luminescent intensity, which is correlated with the enzyme activity, was quantified with a TriStar LB 941 multimode microplate reader (Berthold Technologies, Bad Wildbad, Germany). […]

UGT1A3 = system: UGT1A3; parameters: method as in PMID 23339253; conditions: cited from earlier work
[1] = system: LPS-stimulated RAW264.7 cells; parameters: method as in PMID 23435946, PMID 23935669; conditions: cited from earlier work
P-gp [2] = target: T2, P-gp (Homo sapiens, UniProt P08183); parameters: method as in PMID 17256728; conditions: adriamycin-resisitant human breast cancer cells, MCF-7/ADR; cited from earlier work
T2 construct: purchased Promega V3601
T2 sequence (P08183 whole entry): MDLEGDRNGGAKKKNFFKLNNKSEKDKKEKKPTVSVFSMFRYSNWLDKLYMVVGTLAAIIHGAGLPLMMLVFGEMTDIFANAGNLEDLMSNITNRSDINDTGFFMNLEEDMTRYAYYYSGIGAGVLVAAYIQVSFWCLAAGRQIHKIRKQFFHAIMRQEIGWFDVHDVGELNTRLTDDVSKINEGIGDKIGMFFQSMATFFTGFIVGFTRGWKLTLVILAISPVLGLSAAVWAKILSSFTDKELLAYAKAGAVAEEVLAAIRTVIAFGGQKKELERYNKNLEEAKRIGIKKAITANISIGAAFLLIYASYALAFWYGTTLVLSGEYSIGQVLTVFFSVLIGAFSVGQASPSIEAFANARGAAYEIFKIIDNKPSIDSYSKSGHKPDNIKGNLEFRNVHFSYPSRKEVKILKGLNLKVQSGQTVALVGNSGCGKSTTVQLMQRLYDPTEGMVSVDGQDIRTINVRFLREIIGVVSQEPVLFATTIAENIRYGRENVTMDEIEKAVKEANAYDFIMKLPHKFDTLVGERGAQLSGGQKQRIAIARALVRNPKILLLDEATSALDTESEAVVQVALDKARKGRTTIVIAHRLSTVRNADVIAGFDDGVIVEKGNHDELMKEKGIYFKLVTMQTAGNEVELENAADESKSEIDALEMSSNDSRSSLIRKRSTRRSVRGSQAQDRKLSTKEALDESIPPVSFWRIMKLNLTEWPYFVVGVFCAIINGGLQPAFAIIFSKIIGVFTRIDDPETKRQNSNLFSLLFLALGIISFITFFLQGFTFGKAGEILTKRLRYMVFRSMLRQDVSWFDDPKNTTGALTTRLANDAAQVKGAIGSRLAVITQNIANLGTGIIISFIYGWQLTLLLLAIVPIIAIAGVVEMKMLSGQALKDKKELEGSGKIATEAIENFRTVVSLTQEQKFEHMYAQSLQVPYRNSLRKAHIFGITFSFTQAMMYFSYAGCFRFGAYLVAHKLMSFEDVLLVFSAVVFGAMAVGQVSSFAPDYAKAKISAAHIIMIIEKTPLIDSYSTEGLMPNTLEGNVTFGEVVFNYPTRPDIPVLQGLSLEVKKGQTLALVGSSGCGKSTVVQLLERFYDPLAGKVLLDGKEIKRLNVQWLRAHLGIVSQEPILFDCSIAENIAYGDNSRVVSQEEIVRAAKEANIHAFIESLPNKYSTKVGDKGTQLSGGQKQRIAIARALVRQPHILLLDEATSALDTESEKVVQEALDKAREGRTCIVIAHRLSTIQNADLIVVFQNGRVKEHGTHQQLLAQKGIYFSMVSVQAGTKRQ

CYP2C = conditions: competitive inhibitor; cited from earlier work
human UGT2B17 = system: human UGT2B17; parameters: method as in PMID 22958586; conditions: cited from earlier work
P-gp [3] = target: T2, P-gp; assay: Luminogenic P-gp (ATPase) inhibition assay; format: biochemical; conditions: specific inhibitor positive control, means ± S.D., read-out: IC50 Inhibitors
Text: In vitro enzymatic inhibition assays of human Phase I (CYPs) and Phase II (UGTs) DME, and P-gp were done with commercially available luminogenic assay systems. The assay systems were purchased from Promega (Madison, WI, USA), and the microsomes containing the recombinant human CYPs were purchased from Life Technologies (Carlsbad, CA, USA). The microsomes containing human UGT and P-gp were supplied in the luminogenic assay systems (Promega). […] The enzyme reaction was done according to the manufacturer’s instructions.

O=C(O)Cc1ccccc1Nc1c(Cl)cccc1Cl [Diclofenac]
IC50 (UGT1A1): 180 ± 29.6 µM

COc1cc2c(c(OC)c1OC)-c1c(cc(OC)c(OC)c1OC)C[C@H](C)[C@H](C)C2 [deoxyschizandrin]
inhibition of UGT1A3 isotype (UGT1A3): potently inhibit

COc1cc([C@H]2OC[C@H]3[C@@H]2CO[C@@H]3c2cc(OC)c(O)c(OC)c2)cc(OC)c1O [syringaresinol]
median effective doses (ED50), inhibition of NO production [1]: 10.0 µM | inhibitory effects on P-gp (P-gp [2]): exhibited inhibitory effects

O=c1c(O)c(-c2ccc(O)c(O)c2)oc2cc(O)cc(O)c12 [Quercetin]
median effective doses (ED50), inhibition of NO production [1]: 5.5 µM | Ki (CYP2C): 1.67 µM | inhibition of human UGT2B17 (human UGT2B17): inhibits

schisantherin A
inhibition of UGT1A3 isotype (UGT1A3): potently inhibit

[Na+].[Na+].[Na+].[O]=[V]([O-])([O-])[O-] [Na3VO4]
IC50 (P-gp [3]): 3.4 ± 0.32 µM
